The values below come from patent publication US20260317357A1, “HETEROCYCLIC COMPOUNDS AS STING AGONISTS” (LigaChem Biosciences Inc., priority 2022, published 2026).

One data set deals with T1, hSTING-R232 (Homo sapiens, UniProt Q86WV6, H232R).
T1 construct: host or cells: THP1 Dual KI-hSTING-R232 (STING HAQ gene removed, R232 variant gene introduced)
Briefly: STING agonist activity, THP1 Dual KI-hSTING-R232 IRF luciferase reporter cells. Particulars: 24 hours. It counts as cell-based. How it is done: (§1) In order to evaluate the activity of the STING agonist, reporter cells from Invivogen were used. The cell lines used in the experiment were THP1 Dual™ (InvivoGen #thpd-nfis) expressing the endogenous STING variant HAQ and THP1 Dual™ KI-hSTING-R232 (InvivoGen #thpd-r232/h232) into which the STING R232 or H232 variant gene was injected after removing the STING HAQ gene. The cell lines have a luciferase reporter gene inserted below the IFN regulatory factor (IRF) promoter, and thus the activity of the IFN regulatory factor (IRF) mechanism can be evaluated through luciferase expression.
(§2) The reporter cells were plated at 9.0×10^4 cells/100 μL per well in a 96-well plate using RPMI 1640 medium (Gibco, #22400097) supplemented with 10% heat-inactivated FBS and 1×Antibiotic-Antimycotic (Gibco, #15240062), 10 μg/mL blasticidin (Gibco, #A1113902), and 100 μg/mL Zeocin (Gibco, #R25005). The plated cells were cultured at 37° C., 5% CO2 for 24 hours, and then treated with 100 μL of the serially diluted compound in each well, and then cultured at 37° C., 5% CO2 for 24 hours. After culturing, 20 μL of the cell culture medium was transferred to a 96 well white plate, and QUANTI-Luc™ (InvivoGen #rep-qlcl) was added at 50 µL/well. Using a microplate reader (Perkin Elmer), the value of the luminescence signal increased in the experimental group treated with the drug compared to the control group not treated with the drug was calculated. EC50 values were derived according to the concentration of the compound using GraphPad Prism.
Background: A reporter such as luciferase makes a cellular process visible.

Data set [1] can be described thus: Pharmacokinetics in Balb/C mouse after single IV dose. Format: in vivo. Particulars: 1.5 mg/kg; for AUC(0-inf) / AUC(0-t) / C0 / Cmax / AUC∞, norm / Cmax, norm: n = 3, plasma; for AUC∞, norm / Cmax, norm: dose-normalized; for clearance / half-life / Vd: plasma; for clearance / half-life: n = 3; for Vd: n = 3, read-out: VSS. The protocol:
For in vivo evaluation of STING agonist compounds described herein in naïve Balb/C mouse, single doses of STING agonist compounds were given at 1.5 mg/kg intravenously into female BALB/c mice (Orientbio, South Korea) at 6-8 weeks of age. Pharmacokinetics were studied following injection of the STING agonist compounds into Balb/C mice. Plasma samples were taken at various time points and stored frozen for analysis. The plasma concentrations of the STING agonist compounds at the indicated time points were measured using a LC-MS/MS analysis method.
Briefly, 250 μL of acetonitrile (ACN) solution was added in both 50 µL of sample and 50 µL of plasma containing 10 nM Dextromethorphan (internal standard), and the solutions were mixed vigorously using a vortex mixer for 5 minutes. The samples were then spun down at 14,000 rpm, 4° C. for 5 minutes. 100 μL of supernatants were combined with 100 μL of mobile phase A (0.1% formic acid in water with 5% ACN) and mixed thoroughly. The samples were measured for the STING agonist compounds using a LC-MS/MS (Nexera LC40 (SHIMADZU) and QTRAP4500 (SCIEX)).

The target of the next data set is T2, human STING (Homo sapiens, UniProt Q86WV6).
T2 construct: purchased Cisbio #64BDSTGPEG
Kind of data set: Direct binding potency, HUMAN STING WT BINDING KIT (Cisbio). As to conditions: in vitro. The text has this: Additionally, or analysis of direct binding potency of STING agonist compounds described herein to human STING, HUMAN STING WT BINDING KIT (Cisbio, #64BDSTGPEG) was used according to the manufacturer's instruction.

The next data set concerns the target T3, hSTING-HAQ (Homo sapiens, UniProt Q86WV6, G230A/H232R/R293Q/R71H).
T3 construct: expressing the endogenous STING variant HAQ; host or cells: THP1 Dual
Kind of data set: STING agonist activity, THP1 Dual reporter cells expressing endogenous STING variant HAQ. As to conditions: IRF luciferase, 24 hours. It counts as cell-based. How it is done:
as §1, §2

Another data set concerns the target T4, hSTING-H232 (Homo sapiens, UniProt Q86WV6).
T4 construct: host or cells: THP1 Dual KI-hSTING (STING HAQ gene removed, H232 variant gene introduced)
Briefly: STING agonist activity, THP1 Dual reporter cells with STING H232 variant. Format: cell-based. As to conditions: IRF luciferase, 24 hours. How it is done: as §1, §2

The nature of data set [2]: In vitro cell cytotoxicity in PBMCs (CellTiter-Glo). It counts as cell-based. How it is done: PBMCs were also purchased from […]™ (#700025.2). The cells (8.0×10^4 cells per well) were seeded in a flat-bottomed 96-well plate in RPMI 1640 medium (Gibco, #22400097) with 10% heat-inactivated FBS and 1×Antibiotic-Antimycotic (Gibco, #15240062) and rested for 24 hours at 37° C. […] After 72 hours, the cell viability was measured using CellTiter-Glo Luminescent Cell Viability Assay (Promega, #G7573) according to the manufacture's instruction. The signal was detected using an EnVision Xcite multilabel reader and data were analyzed using GraphPad Prism 8 software.
To verify the effect of the STING agonist compounds in normal cell cytotoxicity, the PBMCs were treated with the STING agonist compounds for 3 days and measured the percentage of cell death.
In general terms: ATP-based viability assays read luminescence as a measure of living cells.

The nature of data set [3]: In vitro cell cytotoxicity in CD34+ HSC (CellTiter-Glo). Format: cell-based. As to conditions: cd34+ hscs. How it is done: The CD34^+ hematopoietic stem cells (HSCs) were purchased from […]™ (#70002.3). The cells (2×10^4 cells per well) were cultured in StemSpan™ SFEM II medium supplemented with StemSpan™ CD34+ Expansion Supplement (#02691) in a 6-well plate at 37° C. for 7 days. On day 3 or 4, an equal volume of fresh complete medium was added into the cell culture. On day 7, the cells (4×10^4 cells per well) were seeded in a 96-well white plate and rested for 24 hours in the same condition.
After 72 hours, the cell viability was measured using CellTiter-Glo Luminescent Cell Viability Assay (Promega, #G7573) according to the manufacture's instruction. The signal was detected using an EnVision Xcite multilabel reader and data were analyzed using GraphPad Prism 8 software.

T3 sequence (Q86WV6 whole entry R71H/G230A/H232R/R293Q): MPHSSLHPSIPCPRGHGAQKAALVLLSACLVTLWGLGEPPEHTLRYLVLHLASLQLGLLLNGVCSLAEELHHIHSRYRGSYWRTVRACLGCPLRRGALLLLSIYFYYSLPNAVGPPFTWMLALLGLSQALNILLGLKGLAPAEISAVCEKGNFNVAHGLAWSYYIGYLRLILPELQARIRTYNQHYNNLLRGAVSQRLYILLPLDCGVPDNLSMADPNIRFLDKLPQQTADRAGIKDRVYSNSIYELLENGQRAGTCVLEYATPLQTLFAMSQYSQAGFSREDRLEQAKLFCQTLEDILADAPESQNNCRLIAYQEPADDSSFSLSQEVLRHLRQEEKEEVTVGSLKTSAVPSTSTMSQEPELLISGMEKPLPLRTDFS
T4 sequence (Q86WV6 whole entry): as the sequence (Q86WV6 whole entry R71H/G230A/H232R/R293Q) above, with H71R, A230G, R232H, Q293R counted along it
T2 sequence (Q86WV6 whole entry): as the sequence (Q86WV6 whole entry R71H/G230A/H232R/R293Q) above, with H71R, A230G, R232H, Q293R counted along it
T1 sequence (Q86WV6 whole entry H232R): as the sequence (Q86WV6 whole entry R71H/G230A/H232R/R293Q) above, with H71R, A230G, Q293R counted along it

On to `CCn1nc(C)cc1C(=O)Nc1nc2cc(C(N)=O)cc(OC)c2n1C/C=C/Cn1c(NC(=O)c2cc(C)nn2CC)nc2cc(C(N)=O)cc(OC/C=C/CN3CCCN3)c21` [Compound 133], for which a half-maximal effect at hSTING-R232 (EC50) was put at 0.33 nM. In data set [1], this compound came in with an AUC(0-inf) of 950 ± 110 ng·h/mL, an AUC(0-t) of 920 ± 110 ng·h/mL, a C0 of 4500 ± 850 ng/mL and a Cmax of 2650 ± 400 ng/mL. Also, in data set [1], the “AUC∞, norm” value is 0.63 ± 0.07 kg·h/L; the “Cmax, norm” value was 1.76 ± 0.27 kg/L; the clearance was 26.5 mL/min/kg; the half-life was 1.61 ± 0.02 h. Also, the Vd in data set [1] worked out at 1.39 ± 0.21 L/kg. The EC50 on human STING came to 0.43 nM.

With `CCc1nc(C)oc1C(=O)Nc1nc2cc(C(N)=O)cnc2n1C/C=C/Cn1c(NC(=O)c2oc(C)nc2CC)nc2cc(C(N)=O)cc(OCCCO)c21` [Comparative #2, reference compound], the EC50 on hSTING-R232 came to 3.39 nM; at hSTING-HAQ, 89.4 nM; on hSTING-H232 it was 9.5 nM. Moreover, the “AUC∞, norm” value in data set [1] was 0.05 ± 0.01 kg·h/L. Further, in data set [1], the “Cmax, norm” value is 0.16 ± 0.02 kg/L.

On to `CCn1nc(C)cc1C(=O)Nc1nc2cc(C(N)=O)cc(OC)c2n1C/C=C/Cn1c(NC(=O)c2cc(C)nn2CC)nc2cc(C(N)=O)cc(OC/C=C/CN3CCNCC3=O)c21` [Compound 28], for which the EC50 at hSTING-R232 was 3.37 nM; on hSTING-HAQ, 15.5 nM; on hSTING-H232, 9.5 nM. The CC50 at 72 h in data set [2] was determined as 12.7 nM; in data set [3] it was 24.9 nM.

`CCn1nc(C)cc1C(=O)Nc1nc2cc(C(N)=O)cc(OC)c2n1C/C=C/Cn1c(NC(=O)c2cc(C)nn2CC)nc2cc(C(N)=O)cc(OCCCN3CCOCC3)c21` [Comparative #1, reference compound] had a CC50 at 72 h in data set [2] of 3.3 nM. In data set [1], the “AUC∞, norm” value was 0.66 ± 0.07 kg·h/L and the “Cmax, norm” value stood at 1.94 ± 0.30 kg/L.

On to `CCn1nc(C)cc1C(=O)Nc1nc2cc(C(N)=O)cc(OC/C=C/Cn3cc(N)cn3)c2n1C/C=C/Cn1c(NC(=O)c2cc(C)nn2CC)nc2cc(C(N)=O)cc(OCCCC(=O)O)c21` [Compound 65], for which the concentration for a half-maximal effect (EC50) at hSTING-R232 was found to be 1.7 nM. For the same compound, it took 18.5 nM to reach half-maximal cytotoxicity in data set [2] (CC50 at 72 h). Moreover, in data set [1], the AUC(0-inf) amounted to 440 ± 440 ng·h/mL, the AUC(0-t) was found to be 430 ± 50 ng·h/mL, the C0 was 1300 ± 430 ng/mL and the concentration peaked (Cmax) at 960 ± 170 ng/mL. Moreover, in data set [1], the “AUC∞, norm” value amounted to 0.29 ± 0.03 kg·h/L; the “Cmax, norm” value worked out at 0.64 ± 0.11 kg/L; the clearance is 57.5 mL/min/kg; the half-life was 0.47 ± 0.08 h. Moreover, the Vd in data set [1] is 1.58 ± 0.13 L/kg. This compound also came in with a 50% effective concentration (EC50) on hSTING-HAQ of 25.5 nM. In addition, in data set [3], the CC50 at 72 h is 3.9 nM. The EC50 at human STING is 0.43 nM. The same compound showed an EC50 at hSTING-H232 of 7 nM.

Take `CCn1nc(C)cc1C(=O)Nc1nc2cc(C(N)=O)cc(OC)c2n1C/C=C/Cn1c(NC(=O)c2cc(C)nn2CC)nc2cc(C(N)=O)cc(OC/C=C/Cn3cc(N)cn3)c21` [Compound 55]: the midpoint of the response at hSTING-R232, the EC50, lay at 0.5 nM. Moreover, the CC50 at 72 h in data set [2] is 4 nM. Besides, in data set [1], the AUC(0-inf) was determined as 5160 ± 120 ng·h/mL, the AUC(0-t) amounted to 5110 ± 120 ng·h/mL, the C0 came out at 21100 ± 2210 ng/mL and the Cmax is 14100 ± 590 ng/mL. For the same compound, in data set [1], the “AUC∞, norm” value was 3.44 ± 0.08 kg·h/L; the “Cmax, norm” value is 9.42 ± 0.39 kg/L; the clearance was 4.83 mL/min/kg; the half-life was 1.2 ± 0.08 h. In addition, the Vd in data set [1] was 0.15 L/kg. The same compound yielded an EC50 at hSTING-HAQ of 6.3 nM. The same compound gave a CC50 at 72 h in data set [3] of 7.9 nM. The EC50 at human STING was 0.22 nM. At hSTING-H232, this compound came in with a concentration giving a half-maximal response (EC50) of 5.5 nM.

What is called EC50 is the concentration needed to bring the measured effect to its halfway point. A higher EC50 goes with a less potent agent. One may read the AUC(0-inf) as total exposure, with the tail of the curve extrapolated. Low values mean low exposure, high ones high exposure. In general, AUC(0-t) refers to exposure summed from dosing to a finite time, without extrapolation to infinity. Low values mean less exposure, high ones more exposure. The Cmax is the maximum level reached in the sampled fluid or tissue. As usually defined, the clearance is the rate of elimination divided by the concentration. A low value points to inefficient removal. What is called half-life is the time needed for the level to fall by half in the phase considered. Lower therefore signals fast loss. As a reminder, the CC50 is the concentration giving 50% cytotoxicity. Higher therefore signals better tolerance by the cells.
